Here are results for 75 compounds from PubChem BioAssay AID1996.

≈ marks a conversion by molar mass, not a printed value.

The conditions of the data set: buffer; pH 7.4; 200.0 µM.
As for `Cc1ccc(CNc2ccccc2C(=O)O)s1`, the kinetic solubility was 23 µg/mL (≈ 93 µM).
Then `CN(C)S(=O)(=O)c1cccc(C(=O)c2nccn2C)c1`, with 41.5 µg/mL (≈ 141 µM); and `CCOC(=O)CNC(=O)c1ccc(Cl)s1`, with above 37.2 µg/mL; and `Cc1ccc(CN2C(=O)CSC2c2ccccc2F)cc1` (stereo not given), with 14 µg/mL (≈ 46.5 µM).
As for `CN1CCN(NS(=O)(=O)c2ccc(Cl)cc2)CC1`, the solubility (kinetic) is above 43.5 µg/mL.
Then `O=C(Nc1ccc(F)cc1F)Nc1sccc1-c1nc2ccccc2s1`, with 0.3 µg/mL (≈ 0.774 µM).
In the case of `Cc1ccc2[nH]c3c(c2c1)SC(C)(C)CC3=O` it was 0.8 µg/mL (≈ 3.26 µM); in that of `Cc1cc(Cl)cc(C)c1OCCn1ccnc1.Cl`, above 43.1 µg/mL; in that of `O=C(Nc1ccccc1Oc1ccccc1)C1=COCCO1`, 34.3 µg/mL (≈ 115 µM).
With `O=C(c1ccc(-n2cccc2)cc1)N1CCCCC1`, the kinetic solubility was above 38.1 µg/mL.
In the case of `CCOC(=O)c1ccc(C(=S)N2CCCC2)cc1` it was 37.3 µg/mL (≈ 142 µM).
Then `O=C(Nc1cc(-c2nc3ncccc3o2)ccc1Cl)c1ccco1`, with 4.4 µg/mL (≈ 13 µM).
`COc1ccccc1OCC(=O)Nc1ccc(S(=O)(=O)N(C)c2ccccc2)cc1` returned a solubility (kinetic) of 2.4 µg/mL (≈ 5.63 µM).
In the case of `Cc1ccc(C(O)(CCN2CCCCC2)c2ccccc2)cc1.Cl` (stereo not given) it was above 51.9 µg/mL; in that of `CCOc1ccc(C(=O)Nc2cccc3cccnc23)cc1`, 0.7 µg/mL (≈ 2.39 µM); in that of `CC(NC(=O)COC(=O)C12CC3CC(CC(Br)(C3)C1)C2)c1ccccc1` (stereo not given), 20.6 µg/mL (≈ 49 µM).
Then `O=C(Nc1csc([N+](=O)[O-])c1)Nc1ccccc1Cl`, with 1 µg/mL (≈ 3.36 µM); and `CN1CC(=O)N(CC(=O)NC2CCCCC2)C1=O`, with above 38 µg/mL.
Then `CCC(=O)N(Cc1cc(=O)[nH]c2ccccc12)c1ccc(OC)cc1`, with 47.1 µg/mL (≈ 140 µM); and `O=C1NCCCCC1NS(=O)(=O)c1ccc(Cl)cc1` (stereo not given), with above 45.4 µg/mL; and `Cn1c(N)c(C(=O)COC(=O)Cc2cccs2)c(=O)n(C)c1=O`, with above 50.6 µg/mL.
The compound `O=C(O)Cn1cc(C(=O)c2ccccc2F)c2ccccc21` registered a kinetic solubility of 44.5 µg/mL (≈ 150 µM).
In the case of `Cc1cccc(NC(=O)NCCN2CCN(c3ccccc3)CC2)c1C` it was 11.5 µg/mL (≈ 32.6 µM).
Then `CN(Cc1cnccn1)Cc1nc(Cc2cccc(F)c2)no1`, with 46.3 µg/mL (≈ 148 µM); and `Cn1ccnc1COc1ccc(C=O)cc1`, with above 32.4 µg/mL; and `COc1ccc2o/c(=N\O)c(C(=O)Nc3ccc(C)cc3)cc2c1`, with 11.7 µg/mL (≈ 36.1 µM).
Then `COC(=O)C1CCN(CC(=O)NC(=O)Nc2ccccc2F)CC1`, with above 50.6 µg/mL; and `Cc1cc(NC(=O)CCc2ccc(-c3ccccc3)o2)no1`, with 2.4 µg/mL (≈ 8.1 µM).
Compound `O=C(CN1CCN(Cc2ccccc2)CC1)NCCc1ccccc1` registered a solubility (kinetic) of 47.3 µg/mL (≈ 140 µM).
The compound `COc1ccc(S(=O)(=O)NC2CC2)cc1Cl` yielded a solubility (kinetic) of 35.3 µg/mL (≈ 135 µM).
In the case of `O=C(COC(=O)C1CCC(=O)N1)Nc1ccccc1OC(F)F` (stereo not given) it was above 49.2 µg/mL; in that of `COc1cc(C(=S)N2CCOCC2)cc(OC)c1OC`, above 44.6 µg/mL; in that of `Cc1noc(NS(=O)(=O)c2ccc(NS(=O)(=O)c3ccc(Cl)cc3)cc2)c1C`, above 66.3 µg/mL.
Then `O=C(Nc1ccccc1F)c1ccc(-c2cccc([N+](=O)[O-])c2)o1`, with 2 µg/mL (≈ 6.13 µM); and `CCCc1nc2ccccc2c(C(=O)OCC(=O)NC2CC2)c1CC`, with above 51.1 µg/mL.
Turning to `COc1ccc(CCNC(=O)Cc2ccc(C)cc2)cc1OC`, the kinetic solubility was above 47 µg/mL.
`Nc1nc(-c2ccc(Oc3ccccc3)cc2)cs1` showed a solubility (kinetic) of 12.8 µg/mL (≈ 47.7 µM).
`CC1(C)CN=C(N(C(=O)Nc2ccccc2)c2ccccc2F)S1` yielded a solubility (kinetic) of 8.3 µg/mL (≈ 24.2 µM).
Then `Cc1cccc(N2C(=O)CC(c3ccc(F)cc3)C3=C2COC3=O)c1` (stereo not given), with above 50.6 µg/mL; and `O=C(NCCc1ccccc1)C1CCC(=O)N1CCc1ccccc1` (stereo not given), with 46.2 µg/mL (≈ 137 µM).
For the compound `O=c1c2[nH]cnc2n(-c2cccc(F)c2)c(=O)n1Cc1ccccc1`, the solubility (kinetic) was above 50.4 µg/mL.
In the case of `COc1ccc(C(=O)CNC2=NCCC2)cc1.Cl` it was above 40.3 µg/mL; in that of `Cc1cccnc1NC1CCCCC1`, 8.1 µg/mL (≈ 42.6 µM); in that of `O=C1CN(C(=O)/C=C/c2ccc(Br)cc2)CCN1`, 41.8 µg/mL (≈ 135 µM).
Then `COc1ccc(NC(=O)/C=C/C(=O)O)c([N+](=O)[O-])c1`, with above 39.9 µg/mL.
In the case of `CCOc1ccc(-c2c(C)n([O-])c3c([n+]2=O)CCCCC3)cc1` it was above 47.2 µg/mL; in that of `O=C(Cn1cccc1C(=O)c1ccccc1)NCc1ccc(Cl)cc1`, 1.1 µg/mL (≈ 3.12 µM); in that of `N#Cc1cccc(C(=O)OCC(=O)NCc2ccco2)c1`, 31.2 µg/mL (≈ 110 µM).
As for `COc1cc(OC)c(C=O)c(OC(=O)N(C)C)c1`, the solubility (kinetic) was determined as 35.8 µg/mL (≈ 141 µM). The solubility kinetic values of the last two compounds are within 1.5-fold of each other.
Then `CC(NC(=O)c1ccccc1Cl)c1ccc(-n2ccnc2)cc1` (stereo not given), with above 48.9 µg/mL; and `CN(C)c1nc(/C=C(\C#N)C(N)=O)c(Cl)n1-c1ccc(F)cc1`, with 8.3 µg/mL (≈ 24.9 µM); and `OC(c1nnc(-c2ccccc2)o1)c1cccs1` (stereo not given), with above 38.7 µg/mL.
Then `CC(C(=O)c1c[nH]c2ccccc12)N1CCOCC1` (stereo not given), with above 38.7 µg/mL; and `CC(C(=O)OCC(=O)NC1CCCCC1)N1C(=O)c2ccccc2C1=O` (stereo not given), with above 53.8 µg/mL.
In the case of `C=CCN1C(=O)C2(OCCCO2)c2cc(CCCC)ccc21`, the solubility (kinetic) was 4.5 µg/mL (≈ 14.9 µM).
For the compound `Cc1cc(C)cc(N2CC(C(=O)NC3CCCCC3)CC2=O)c1` (stereo not given), the kinetic solubility turned out to be 11.4 µg/mL (≈ 36.3 µM). Compared with the last compound, the solubility kinetic is about 2.5-fold higher.
Turning to `Cc1ccc(-c2c[n+]3c(n2-c2ccccc2)CCC3)cc1.[Br-]`, the kinetic solubility was above 53.3 µg/mL.
Then `CSc1nc(C)nc(C2CC2)c1C#N`, with 1.2 µg/mL (≈ 5.85 µM); and `COc1ccccc1/C=C/C(=O)NC(=S)N1CCN(C)CC1`, with above 47.9 µg/mL; and `COc1ccc(CNc2ncnc3sccc23)cc1OC`, with 20.2 µg/mL (≈ 67 µM).
For the compound `O=C(Oc1ccc(F)cc1)N1CCOCC1`, the solubility (kinetic) was above 33.8 µg/mL.
In the case of `Cn1c(=O)n(CC(N)=O)c(=O)c2c1nc1n2CCCN1Cc1ccccc1` it was 30.8 µg/mL (≈ 83.6 µM); in that of `CN1CCC(CN)(N2CCN(c3ccccc3)CC2)CC1`, 41.9 µg/mL (≈ 145 µM).
In the case of `Cc1ccc(SCCOCCN2CC(C)OC(C)C2)cc1.Cl` (stereo not given) it was 42.5 µg/mL; in that of `Cc1nc(=S)c2c([nH]1)-c1ccccc1CC21CCCCC1`, 0.3 µg/mL (≈ 1.01 µM).
`O=C(N1CCOCC1)N1CCN(S(=O)(=O)c2ccc(F)cc2)CC1` yielded a kinetic solubility above 53.6 µg/mL.
Consider `CCC(=O)Nc1ccc2c(c1)nc(CN1CCCCC1)n2C`, for which the kinetic solubility is above 45.1 µg/mL.
Then `CCOC(=O)Nc1ccc(S(=O)(=O)Nc2onc(C)c2C)cc1`, with 47.2 µg/mL (≈ 139 µM); and `Cc1cccc(C(=O)OCC(=O)NC(C)C2CC3CCC2C3)c1O` (stereo not given), with 4.1 µg/mL (≈ 12.4 µM); and `O=c1[nH]c2ccccc2n2c(=S)[nH]nc12`, with above 32.7 µg/mL.
In the case of `COc1ccc(/C=N/NC(=O)c2ccc3nc[nH]c3c2)cc1` it was above 44.1 µg/mL; in that of `CN(C)c1cc(-c2ccc(Cl)cc2Cl)oc(=O)c1Cl`, 3.3 µg/mL (≈ 10.4 µM); in that of `CCc1nnc(NC(=O)CS(=O)(=O)Cc2ccccc2)s1`, above 48.8 µg/mL.
Then `CCOC(=O)c1c(NC(=O)CN2CCCCC2)sc(C)c1C`, with below 0.3 µg/mL; and `Cc1ccc(-c2cn3cc(C)ccc3n2)cc1`, with 1.6 µg/mL (≈ 7.2 µM).

In general, solubility (kinetic) refers to solubility judged after dilution from a stock solution rather than from solid.
